In patent US8940324B2, “Octenidine composition” (Artan Holding AG, priority 2008, dated 2015):
“Also recorded” adds a separate entry of the source.

Tests used:
U373 cells = assay: Determination of cell adhesion (cell detachment assay with Methyl violet); format: cell-based, human; conditions: for effect on cell adhesion; additives: effect on the Octenisept® induced reduction: U373, 1 hour, Octenisept® alone or 1:1 with additive 5%, 5 μl to 100 μl medium, FIG. 3
Method: The humane glioblastoma cell line U373 was cultured in Dulbecco's Modified Eagle Medium (DMEM) supplemented with 10% PCS (Gibco™), 2 mM glutamine (PPA) and 100 U/ml penicillin/streptomycin (PAA) at 37° and 5% CO2. The cells were cultivated in monolayer and passaged at 80% confluence. Before carrying out the cell adhesion experiments the cells were transferred onto 96-well plates and brought to confluence.
Cell adhesion was carried out as described in detail in the quotation (Uchide, N. and Toyoda H., (2007) J Immunol Methods, 328 (1-2): 215-9). U373 cells were incubated in 96-well plates with Octenisept® (final concentration 5% (v/v) Octenisept®, this equates 0.005% octenidine dihydrochloride) alone or with the specified additives (5% v/v) for 1 hour in glucose-free Leibovitz medium. After removing the supernatant the standardized washing procedure was executed 3 times after which PBS was added with a motor-controlled pipet which led to the detachment of non-adhesive cells. Afterward only those cells whose matrix had formed a solid connection were fixed with glutaraldehyde and after removal of the glutaraldehyde stained with Methyl violet. The precipitated stain was dissolved with an SDS buffer and the extinction was measured at 550 nm in an ELISA plate reader.
It was now examined whether this additive ensures effects which can contribute to the improvement of wound healing. U373 cells were incubated for 1 hour in Leibovitz medium with Octenisept® alone or with additives (1:1 with glucose 5% or NaCl 0.9%). In each case 5 μl of the respective solution was added to 100 μl of medium. After washing and staining of the adherent cells with crystal violet the extinction was measured at 550 nm (FIG. 2a). The extinction of the controls was set to 1. Statistical significances were determined with Bonferroni's Multiple Comparison Test (**: p<0.01, ***<0.001).
Polyalcohols form a broad compound class and it was therefore examined whether single subgroups have different effects in the adhesion test. U373 cells were incubated in Leibovitz medium with 5 μl additive to 100 μl medium in each case for 1 hour with Octenisept® alone (−) or with additives (1:1 with polyalcohol 5%, glucose, 2-deoxyglucose (2-deoxyG.), lactose, saccharose, fructose, glucuronic acid, polyethylene glycol (PEG), chondroitin-4-sulfate (ch.4-s.), chondroitin-6-sulfate (ch.-6-s.) dermatan sulfate (dermatan-s.) or dextran sulfate (dextran-s.)). After washing and staining of the adherent cells with Methyl violet the extinction was measured at 550 nm. (Bars represent the mean value±SD of two independent experiments (measured in triplicates)). The extinction of the controls was set to 1. Statistical significances were determined with Bonferroni's Multiple Comparison Test (**: p<0.01, ***<0.001).
U373 cells were incubated for one hour with Octenisept® (1:20 in medium) alone (G0) or with Octenisept® and different volumes of a 5% glucose solution (resulting final dilution 1:200-1:2 in Leibovitz medium).

[1] = Precipitation assay of Octenisept® with NaCl or carbohydrates; format: physicochemical; conditions: equal parts Octenisept® and diluent (5%), 4° C.
Method: The stability of the solubility of the components of Octenisept® in NaCl solution as an indicator for their interaction was determined through the analysis of the precipitates. After the co-incubation of Octenisept® with equal parts of 0.9% w/v NaCl or 5% carbohydrates in sterile aqua bidest for 3, 12, 24 and 72 hours at 4° C. the solutions were centrifuged at 2500 rpm for 5 minutes and the precipitate, if existing, was analyzed with the Zeiss inverted microscope with a digital camera with the METAVIEW micro-photography documentation system.

[2] = concentration series with glucose, FIG. 4

Row | Compound | effect on cell adhesion; additives: effect on the Octenisept® induced reduction (U373 cells) | further results
1 | dextran sulfate | significantly reduced the adhesion to under the values of NaCl | –
2 | OC[C@H]1O[C@@H](O[C@H]2[C@H](O)[C@@H](O)C(O)O[C@@H]2CO)[C@H](O)[C@@H](O)[C@H]1O (some centres unmarked) [lactose] | improved | –
3 | chondroitin-6-sulfate | significantly reduced the adhesion to under the values of NaCl | –
4 | O=CC[C@@H](O)[C@H](O)[C@H](O)CO [2-deoxyglucose] | improved | –
5 | O=C[C@H](O)[C@@H](O)[C@H](O)[C@H](O)CO [glucose] | improved | effect of glucose addition on Octenisept® reduced cell adherence (U373 cells; 5% glucose solution, final dilution 1:200 or 1:100, FIG. 4): tendentially improved; optimal glucose addition, final concentration (U373 cells; [2]): 0.1%; optimal glucose addition, in the stock solution (U373 cells; [2]): 2%; optimal absolute glucose in the Octenisept solution (U373 cells; corresponds to dilution 1:20 of 5% glucose): 0.25%
6 | O=C[C@H](O)[C@@H](O)[C@H](O)[C@H](O)C(=O)O [glucuronic acid] | improved | effect on cell adhesion; additives: effect on the Octenisept® induced reduction (U373 cells; listed as Glucuronic acid): positive effect
7 | O=C(CO)[C@@H](O)[C@H](O)[C@H](O)CO [fructose] | improved | –
8 | polyethylene glycol | improved | effect on cell adhesion; additives: effect on the Octenisept® induced reduction (U373 cells; listed as PEG): slight reduction of the positive effect
9 | dermatan sulfate | significantly reduced the adhesion to under the values of NaCl | sediment / crystals / turbidity of Octenisept® mixed with diluent [1]: quick micro-crystalline or colloidal turbidity
10 | heparan sulfate | – | sediment / crystals / turbidity of Octenisept® mixed with diluent [1]: quick micro-crystalline or colloidal turbidity
11 | OC[C@H]1O[C@@](CO)(O[C@H]2O[C@H](CO)[C@@H](O)[C@H](O)[C@H]2O)[C@@H](O)[C@@H]1O [saccharose] | improved; also recorded: without impairing the effect | –
12 | chondroitin sulfate | – | sediment / crystals / turbidity of Octenisept® mixed with diluent [1]: quick micro-crystalline or colloidal turbidity
13 | chondroitin-4-sulfate | significantly reduced the adhesion to under the values of NaCl | –
